From patent US20230279002A1, “Polymorphs of Crystalline Forms of 3,10-dimethoxy-5,8,13,13a-tetrahydro-6H-isoquinolino[3,2-a]isoquinolin-9-yl 3-fluorobenzenesulfonate and Salts Thereof” (CVI Pharmaceuticals Limited, priority 2020, published 2023)
Counter-ions that a name gives are not always drawn. Values belong to the compound of their own block, whether it stands above or below them.

What was measured:
[1] = Solid stability at 40° C./0% RH (closed) and 40° C./75% RH (open), HPLC; format: physicochemical; conditions: for 0 day % remaining / 5 day % remaining / 10 day % remaining: solid
Procedure: (§1) Solid stability: 5 mg of 2a was weighed into scintillation vials sealed properly and stored at 40° C./0% RH(closed), 40° C./75% RH(open) under dark conditions to avoid the effect of light on stability. Samples were collected at day 0, 5 and 10 and analyzed by HPLC.
Solid stability: 5 mg of compound was weighed into vials sealed properly and stored at 40° C./0% RH (closed), 40° C./75% RH (open) under dark conditions to avoid the effect of light. Samples were analyzed by HPLC at days 0, 7, and 21.
as §1, with “stability of compound 1a:” for “stability:”, “compound were accurately” for “of 2a was”, “condition” for “conditions”, “should be” for “were”, “10 days” for “10”

[2] = Long term stability at 30° C./65% RH; format: physicochemical
[3] = test system: serum PCSK9; experiment: Double-blind, randomized phase 1a study in healthy volunteers; format: in vivo, human; conditions: 10 days oral 300 mg QD, compared to baseline
Excerpt: (§2) Compound 1a has undergone a double-blind, randomized phase 1a study conducted in healthy volunteers. […] Currently, a phase 2 POC trial is underway in China in patients with hypercholesterolemia.

[4] = test system: serum LDL-C, TC, Apo B, and PCSK9; experiment: Proof-of-mechanism phase 1b study in subjects with elevated LDL-C; format: in vivo, human; conditions: 28 days, compared with placebo cohort
Excerpt: as §2

[5] = Phase 1 studies, safety and tolerability in healthy volunteers and hyperlipidemic subjects; format: in vivo, human
Excerpt: as §2

[6] = TGA (Thermal Gravimetric Analysis) weight loss; format: physicochemical
Procedure: TGA (Thermal Gravimetric Analysis): Samples of compounds (4˜6 mg) were weighed into the pan, and heated under nitrogen purge using a ramp rate of 20° C./min over the range of 30° C.˜350° C.

[7] = Solubility of salts in water, SGF and FaSSIF at 25° C. for 24 hours (HPLC)
Procedure: (§3) About 5 mg of seven kinds of salts were weighed into each vial, and 2 mL of medium was added, respectively. The medium included water, SGF and FaSSIF. All samples were stirred at 25° C. for 24 hours.

[8] = physchem; conditions: 25 °C, thermodynamic from solid, Solubility (mg/mL)
Procedure: as §3

[9] = Medium: FaSSIF, 25° C., stirred 24 hours, HPLC
[10] = Medium: SGF, 25° C., stirred 24 hours, HPLC
[11] = Medium: Water, 25° C., stirred 24 hours, HPLC

Solid-state stability (HPLC) ([1]; 40° C./0% RH (closed) and 40° C./75% RH (open), dark, up to 10 days): substantially stable
0 day % remaining ([1]; 40° C. (0% RH, closed)): 99.65%
5 day % remaining ([1]; 40° C. (0% RH, closed)): 101.65%
10 day % remaining ([1]; 40° C. (0% RH, closed)): 100.85%
0 day % remaining ([1]; 40° C./75% RH (open)): 99.65%
5 day % remaining ([1]; 40° C./75% RH (open)): 100.66%
10 day % remaining ([1]; 40° C./75% RH (open)): 101.31%
% Remaining ([2]; 1 month): 100.30%
% Remaining ([2]; 3 month): 100.00%
% Remaining ([2]; 6 month): 99.30%
% Remaining ([2]; 12 month): 99.60%
% Remaining ([2]; 18 month): 99.20%
% Remaining ([2]; 24 month): 99.50%
% Remaining ([2]; 36 month): 100.40%
% Remaining ([2]; time 0): 100.10%
Long term stability ([2]; up to 36 months): stable
Compound: COc1ccc2c(c1)CCN1Cc3c(ccc(OC)c3OS(=O)(=O)c3cccc(F)c3)C[C@H]21 [Compound 1a, 3,10-dimethoxy-5,8,13,13a-tetrahydro-6H-isoquinolino[3,2-a]isoquinolin-9-yl 3-fluorobenzenesulfonate]
serum PCSK9 levels [3]: significantly reduced
serum Apo B [4]: significantly reduced
serum LDL-C [4]: significantly reduced
serum PCSK9 levels [4]: significantly reduced
serum TC [4]: significantly reduced
safety profile [5]: favorable safety profile
tolerability [5]: well tolerated

TGA weight loss (from RT to 120° C.) [6]: 0.24%
TGA weight loss (in words) ([6]; room temperature to 120° C.): no significant weight loss
solubility [7, 9]: 1 µg/mL
solubility [7, 10]: 214 µg/mL
solubility [7, 11]: 110 µg/mL
Compound: COc1ccc2c(c1)CCN1Cc3c(ccc(OC)c3OS(=O)(=O)c3cccc(F)c3)C[C@H]21 [besylate]

TGA weight loss (from RT to 120° C.) [6]: 1.50%
TGA weight loss ([6]; room temperature to 120° C.): 1.50%
solubility [7, 9]: 2 µg/mL
solubility [7, 10]: 156 µg/mL
solubility [7, 11]: 163 µg/mL
Compound: COc1ccc2c(c1)CCN1Cc3c(ccc(OC)c3OS(=O)(=O)c3cccc(F)c3)C[C@H]21 [hydrobromide salt]

TGA weight loss (from RT to 120° C.) [6]: 0.44%
TGA weight loss (in words) ([6]; room temperature to 120° C.): almost no obvious weight loss
solubility [7, 9]: 1 µg/mL
solubility [7, 10]: 221 µg/mL
solubility [7, 11]: 86 µg/mL
Compound: COc1ccc2c(c1)CCN1Cc3c(ccc(OC)c3OS(=O)(=O)c3cccc(F)c3)C[C@H]21 [maleate]

TGA weight loss (from RT to 120° C.) [6]: 0.12%
TGA weight loss (in words) ([6]; room temperature to 120° C.): no weight loss
solubility at 24 h ([7]; FaSSIF, 25 °C, fassif, thermodynamic from solid, Solubility (mg/mL), Medium: FaSSIF, 25° C., stirred 24 hours, HPLC): 2 µg/mL
solubility [7, 10]: 496 µg/mL
solubility [7, 11]: 1370 µg/mL
Solubility compared with other salts ([7]; water and SGF, 25° C., 24 hours): better than that of other salts
Compound: COc1ccc2c(c1)CCN1Cc3c(ccc(OC)c3OS(=O)(=O)c3cccc(F)c3)C[C@H]21 [sulfate]
Solubility compared with other polymorphs (summary) ([7]; summary of the Examples): generally more soluble than other polymorphs

TGA weight loss (from RT to 120° C.) [6]: 0.60%
TGA weight loss (in words) ([6]; room temperature to 120° C.): almost no significant weight loss
solubility at 24 h ([8]; fassif): < 1 µg/mL
solubility at 24 h ([8]; simulated gastric fluid): 399 µg/mL
solubility at 24 h ([8]; water): 411 µg/mL
Compound: COc1ccc2c(c1)CCN1Cc3c(ccc(OC)c3OS(=O)(=O)c3cccc(F)c3)C[C@H]21 [tosylate]

Compound: hydrochloride
TGA weight loss (from RT to 120° C.) [6]: 0.09%
